# Assay results: paper PMC11871066, “Structure-based discovery of hydrocarbon-stapled paxillin peptides that block FAK scaffolding in cancer” (Nature Communications, 2025)
# pKd, pKi: −log10 of the molar value. Like-named read-outs stand apart in the source and are kept apart here. Bridge positions count the residues as written; N and C are the ends. Square brackets hold non-standard residues; d marks the D form. Peptide text beside a SMILES is read from it. R8 = C=CCCCCCC[C@@](C)(N)C(=O)O; R5 = C=CCCC[C@@](C)(N)C(=O)O; S5 = C=CCCC[C@](C)(N)C(=O)O
# Assays:
# [1] = molecular target: T1, FAK FAT domain (Homo sapiens, UniProt Q05397); test: SPR binding to immobilized biotinylated FAK FAT
# T1 sequence (Q05397 914-1045 limits assumed): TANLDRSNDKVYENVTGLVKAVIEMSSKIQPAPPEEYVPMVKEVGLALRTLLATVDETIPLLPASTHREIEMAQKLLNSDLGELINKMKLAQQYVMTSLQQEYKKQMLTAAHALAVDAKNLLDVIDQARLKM
# Protocol: SPR binding studies were performed using biotinylated FAK FAT protein[51]. Briefly, SPR binding assays were performed on a ForteBio Pioneer FE SPR system using SPR running buffer (100 mM Tris-Cl pH 8.0, 200 mM NaCl, and 0.05% Tween-20). […] Desired immobilization levels were determined utilizing the following Eq. 1:1 Rmax=RproteinxMranalyte/MrproteinxVprotein where Rmax is the highest possible response of binding between the analyte and the protein, Rprotein is the change in response by the immobilization of the protein, Mr represents the mass of the analyte or protein, and Vprotein represents the number of binding sites on the protein. A target Rmax of approximately 100 RU was chosen.
# All samples were diluted in the SPR buffer to a volume of 200 µl and injected using the OneStep gradient injection system at a flow rate of 150 µl/min. For a bulk standard control, a 3% (w\v) solution of sucrose in SPR buffer was used for injection. […] SPR data analysis utilized Qdat software (ForteBio, version 4.3.2 build 8) for normalization of the baseline prior to injection, channel alignment, and reference channel and blank subtraction.
# [2] = molecular target: T2, FAK FAT / TAMRA-paxillin LD2 L10D (Homo sapiens, UniProt Q05397); test: Fluorescence polarization competition (FAK-paxillin) assay; format: binding
# T2 construct: assay was performed using FAK FAT protein and TAMRA-LD2 L10D peptide
# T2 sequence (Q05397 919-1052): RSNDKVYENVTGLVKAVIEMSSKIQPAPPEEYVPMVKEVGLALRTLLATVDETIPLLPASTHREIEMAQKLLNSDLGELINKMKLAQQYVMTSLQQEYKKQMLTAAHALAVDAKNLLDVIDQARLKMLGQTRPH
# Protocol: The IC50 was calculated using a four-parameter dose-response inhibition model, with the bottom fit constrained to the lower plateau of the binding curve.
# [3] = Circular dichroism, % alpha-helicity; format: physicochemical; settings: CD, 20 mM NaH2PO4 pH 7.0, 20 °C, CDSSTR
# Protocol: CD experiments were performed on a Jasco J-815 CD spectrometer equipped with a Jasco PTC-423S/15 temperature control and analysis utilizing Spectra Manager (version 2.0). Spectral measurements were made in quartz spectrophotometer cells with an optical cell path length of 1.0 mm (Starna Cells Inc.) using standard collection parameters: 20 °C, 190–260 nm, 0.5 nm step resolution, 50 nm/min scanning speed, 0.5 s response, 1 nm bandwidth, 8 accumulations. […] Secondary structure analysis, including % alpha-helicity, was performed using the CDSSTR method[58] on data reference set 4 basis spectra. The reliability of secondary structure predictions was quantified by the goodness-of-fit of the back-calculated spectrum to the experimental spectrum and reported as a normalized root-mean-square deviation (NRMSD).
# [4] = Plasma stability; settings: mouse plasma
# [5] = test system: trypsin; test: in vitro; settings: isolated enzyme trypsin
# Protocol: (§1) Cell permeability of peptide drugs was determined by fluorescence measurement of TAMRA-labeled peptides in 96-well plates and ClarioStar Plus plate reader using BMG ClarioStar MARS software (version 4.20). […] Percent uptake was calculated as background-subtracted fluorescence absorbed by cells/fluorescence of peptide in media-only wells, then made relative to TAMRA-Alkyne. Three biological replicates (n = 3) were performed per cell line per treatment group. Peptide proteolysis was measured using immobilized Trypsin-agarose resin (Thermo Fisher) and quantification by LC-MS. […] In vivo pharmacokinetics were performed by the UACC Analytical Chemistry Shared Resource. […] The mice were fed NIH-31 irradiated pellets (Tekland Premier, Madison, Wisconsin), and reverse osmosis water was freely available. […] The average plasma concentration versus time data were analyzed using PKSolver (version 2.0) by a noncompartmental approach.
# [6] = test system: trypsin; test: Trypsin proteolytic resistance assay; settings: immobilized trypsin-agarose resin
# Protocol: as §1
# [7] = molecular target: trypsin (Bos taurus, UniProt P00760)
# Sequence of trypsin (Bos taurus, UniProt P00760) (P00760 24-246): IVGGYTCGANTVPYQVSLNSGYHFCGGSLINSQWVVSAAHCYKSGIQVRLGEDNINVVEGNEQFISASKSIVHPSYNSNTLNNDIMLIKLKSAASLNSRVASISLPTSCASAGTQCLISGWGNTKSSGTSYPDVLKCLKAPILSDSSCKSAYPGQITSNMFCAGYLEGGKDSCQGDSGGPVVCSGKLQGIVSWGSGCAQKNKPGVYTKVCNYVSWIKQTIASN
# Protocol: as §1
# [8] = one-site kinetic fit, mean ± SD of n = 2-5 biological replicates, Tris pH 8.0, read-out: SPR KD
smiles,measurement,setting,value
CC(=O)N[C@@H](CC(N)=O)C(=O)N[C@@H](CC(C)C)C(=O)N[C@]1(C)CCCCCCC=CCCC[C@@](C)(C(=O)N[C@@H](CCC(=O)O)C(=O)N[C@@H](CCC(=O)O)C(=O)N[C@@H](CC(N)=O)C(N)=O)NC(=O)[C@H](CC(C)C)NC(=O)[C@H](CC(C)C)NC(=O)[C@H](CCCNC(=N)N)NC(=O)[C@H](CC(=O)O)NC(=O)[C@H](CCC(=O)O)NC(=O)[C@H](CCC(=O)O)NC1=O [compound 2014] (Ac-NL[R8]EEDRLL[S5]EEN-NH2; staple 3-10),pKd,"[1]; Rep1, read-out: SPR (KD)",< 3.70
same,pKd,"[1]; Rep2, read-out: SPR (KD)",< 3.70
same,pKd,"[1]; Rep3, read-out: SPR (KD)",< 3.70
same,pKd,"[1]; Rep4, read-out: SPR (KD)",< 3.70
same,SPR KD,"[1]; one-site kinetic fit, mean ± SD of n = 2-5 biological replicates, Tris pH 8.0",did not bind FAT
same,pKd,[1]; [8],< 3.70
same,FP Ki,"[2]; 25 µM FAT, 0.1 µM probe, 3 h, mean ± SD, n = 3",did not bind FAT
same,pKi,"[2]; Rep1, read-out: FP (Ki) data",< 2.90
C=CCCCCCC[C@@](C)(NC(=O)[C@H](CC(C)C)NC(=O)[C@H](CC(N)=O)NC(C)=O)C(=O)N[C@@H](CCC(=O)O)C(=O)N[C@@H](CC(C)C)C(=O)N[C@@H](CC(=O)O)C(=O)N[C@@H](CCCNC(=N)N)C(=O)N[C@@H](CC(C)C)C(=O)N[C@@H](CC(C)C)C(=O)N[C@@](C)(CCCC=C)C(=O)N[C@@H](CCC(=O)O)C(=O)N[C@@H](CC(C)C)C(=O)N[C@@H](CC(N)=O)C(N)=O [compound 2013],helical content,[3],70%
same,pKd,"[1]; Rep2, read-out: SPR (KD)",4.45
CC(=O)N[C@@H](CC(N)=O)C(=O)N[C@@H](CC(C)C)C(=O)N[C@@H](CO)C(=O)N[C@]1(C)CCCCCCC=CCCC[C@@](C)(C(=O)N[C@@H](CC(C)C)C(=O)N[C@@H](CC(N)=O)C(N)=O)NC(=O)[C@H](CC(C)C)NC(=O)[C@H](CC(C)C)NC(=O)[C@H](CC(C)C)NC(=O)[C@H](CCCNC(=N)N)NC(=O)[C@H](CC(=O)O)NC(=O)[C@H](CC(C)C)NC1=O [compound 1905] (Ac-NLS[R8]LDRLLL[S5]LN-NH2; staple 4-11),pKd,[1]; [8],3.84
same,pKi,"[2]; Rep1, read-out: FP (Ki) data",< 2.90
same,pKi,"[2]; Rep2, read-out: FP (Ki) data",< 2.90
same,pKi,"[2]; Rep3, read-out: FP (Ki) data",< 2.90
CC(=O)N[C@@H](CC(N)=O)C(=O)N[C@@H](CC(C)C)C(=O)N[C@@H](CO)C(=O)N[C@@H](CCC(=O)O)C(=O)N[C@]1(C)CCCCCCC=CCCC[C@@](C)(C(=O)N[C@@H](CC(N)=O)C(N)=O)NC(=O)[C@H](CCC(=O)O)NC(=O)[C@H](CC(C)C)NC(=O)[C@H](CC(C)C)NC(=O)[C@H](CC(C)C)NC(=O)[C@H](CCCNC(=N)N)NC(=O)[C@H](CC(=O)O)NC1=O [compound 1914] (Ac-NLSE[R8]DRLLLE[S5]N-NH2; staple 5-12),pKd,[1]; [8],3.92
same,pKi,"[2]; Rep1, read-out: FP (Ki) data",< 2.90
same,pKi,"[2]; Rep2, read-out: FP (Ki) data",< 2.90
same,pKi,"[2]; Rep3, read-out: FP (Ki) data",< 2.90
CC(C)[N+](C)(CCOC(=O)C1c2ccccc2Oc2ccccc21)C(C)C [propantheline bromide],% remaining in plasma,"[4]; 0 min, Rep1",105%
same,% remaining in plasma,"[4]; 0 min, Rep2",100%
same,% remaining in plasma,"[4]; 0 min, Rep3",95%
same,% remaining in plasma,"[4]; 15 min, Rep1",85%
same,% remaining in plasma,"[4]; 15 min, Rep2",78%
same,% remaining in plasma,"[4]; 15 min, Rep3",86%
same,% remaining in plasma,"[4]; 30 min, Rep1",73%
same,% remaining in plasma,"[4]; 30 min, Rep2",70%
same,% remaining in plasma,"[4]; 30 min, Rep3",68%
same,% remaining in plasma,"[4]; 60 min, Rep1",58%
same,% remaining in plasma,"[4]; 60 min, Rep2",52%
same,% remaining in plasma,"[4]; 60 min, Rep3",50%
same,% remaining in plasma,"[4]; 90 min, Rep1",30%
same,% remaining in plasma,"[4]; 90 min, Rep2",42%
same,% remaining in plasma,"[4]; 90 min, Rep3",36%
same,% remaining in plasma,"[4]; 120 min, Rep1",29%
same,% remaining in plasma,"[4]; 120 min, Rep2",31%
same,% remaining in plasma,"[4]; 120 min, Rep3",27%
same,plasma stability t1/2,[4]; n = 3,66 min
"CC(=O)N[C@@H](CC(N)=O)C(=O)N[C@@H](CC(C)C)C(=O)N[C@@H](CO)C(=O)N[C@@H](CCC(=O)O)C(=O)N[C@@H](CC(C)C)C(=O)N[C@@H](CC(=O)O)C(=O)N[C@@H](CCCNC(=N)N)C(=O)N[C@@H](CC(C)C)C(=O)N[C@@H](CC(C)C)C(=O)N[C@@H](CC(C)C)C(=O)N[C@@H](CCC(=O)O)C(=O)N[C@@H](CC(C)C)C(=O)N[C@@H](CC(N)=O)C(N)=O [LD2, reference compound]",half-life at 100 µM,[5],47 min
same,"remaining at 0.25 h, 100 µM",[6],76%
same,"remaining at 0.5 h, 100 µM",[6],70%
same,"remaining at 1 h, 100 µM",[6],29%
same,"remaining at 2 h, 100 µM",[6],16%
same,"remaining at 3 h, 100 µM",[6],16%
same,"remaining at 4 h, 100 µM",[6],13%
same,"remaining at 6 h, 100 µM",[6],0%
same,"remaining at 7 h, 100 µM",[6],0%
same,"remaining at 24 h, 100 µM",[6],0%
same,"remaining at 48 h, 100 µM",[6],0%
same,trypsin proteolysis t1/2,[7],46.8 min
CC(=O)N[C@@H](CC(N)=O)C(=O)N[C@@H](CC(C)C)C(=O)N[C@@H](CO)C(=O)N[C@@H](CCC(=O)O)C(=O)N[C@@H](CC(C)C)C(=O)N[C@@H](CC(=O)O)C(=O)N[C@@H](CCCNC(=N)N)C(=O)N[C@@H](CC(C)C)C(=O)N[C@]1(C)CCCC=CCCC[C@@](C)(C(=O)N[C@@H](CC(N)=O)C(N)=O)NC(=O)[C@H](CCC(=O)O)NC(=O)[C@H](CC(C)C)NC1=O [compound 1921] (Ac-NLSELDRL[R5]LE[S5]N-NH2; staple 9-12),pKd,"[1]; Rep1, read-out: SPR (KD)",< 3.70
same,pKd,"[1]; Rep2, read-out: SPR (KD)",< 3.70
same,pKd,"[1]; Rep3, read-out: SPR (KD)",< 3.70
same,pKd,[1]; [8],< 3.70
CC(=O)N[C@]1(C)CCCCCCC=CCCC[C@@](C)(C(N)=O)NC(=O)[C@H](CC(C)C)NC(=O)[C@H](CC(C)C)NC(=O)[C@H](CCCNC(=N)N)NC(=O)[C@H](CC(=O)O)NC(=O)[C@H](CC(C)C)NC(=O)[C@H](CCC(=O)O)NC1=O [compound 2011] (Ac-[R8]ELDRLL[S5]-NH2; staple 1-8),pKd,"[1]; Rep1, read-out: SPR (KD)",< 3.70
same,pKd,"[1]; Rep2, read-out: SPR (KD)",< 3.70
same,pKd,"[1]; Rep3, read-out: SPR (KD)",< 3.70
same,pKd,"[1]; read-out: SPR KD, pH 8",< 3.70
same,pKi,[2],< 3.48
same,pKi,"[2]; Rep2, read-out: FP (Ki) data",< 3.48
CC(=O)N[C@@H](CC(N)=O)C(=O)N[C@]1(C)CCCCCCC=CCCC[C@@](C)(C(=O)N[C@@H](CC(C)C)C(=O)N[C@@H](CCC(=O)O)C(=O)N[C@@H](CC(C)C)C(=O)N[C@@H](CC(N)=O)C(N)=O)NC(=O)[C@H](CC(C)C)NC(=O)[C@H](CCCNC(=N)N)NC(=O)[C@H](CC(=O)O)NC(=O)[C@H](CC(C)C)NC(=O)[C@H](CCC(=O)O)NC(=O)[C@H](CO)NC1=O [compound 2017] (Ac-N[R8]SELDRL[S5]LELN-NH2; staple 2-9),pKd,[1]; [8],4.55
